Our source for the GI50 and TGI values is PubChem BioAssay (NCI).

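Five concentrations, 48 hours, 96-well plates. At the GI50, growth is halved. TGI marks complete inhibition of growth.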 *1 amine or outer side, *2 acyl side, *3 side chain or, on linkers, in order; H or OH if unused. Where a SMILES comes first, the peptide text is derived from it. [ ]: non-standard residue; d: D form. ξ: configuration not given here. X21 = CC[C@@H](C)C(N[*:1])C(=O)[*:2]; ξR = N=C(N)NCCCC(N)C(=O)O; ξI = CCC(C)C(N)C(=O)O; ξL = CC(C)CC(N)C(=O)O; ξK = NCCCCC(N)C(=O)O; ξV = CC(C)C(N)C(=O)O; ξA = CC(N)C(=O)O

Some test systems named below: SK-MEL-28 melanoma; HOP-62 NSCLC; ACHN renal; MDA-MB-435; NCI-H460 lung; K-562 leukemia; A498 renal; SF-268 CNS; T-47D breast; NCI-H226 lung.
What all share (assay): NCI anticancer screen, dose series, 48 h

On to `NC1=Nc2cc(OCCCN3Cc4ccccc4C3)c(OCC3CC3)cc2C12CCCC2`, for which the GI50 in the assay with SK-MEL-28 melanoma is 1.84 µM; with HOP-62 NSCLC it was 3.45 µM; in the assay with ACHN renal, 3.44 µM; in the assay on MDA-MB-435, 1.8 µM; with NCI-H460 lung, 2.02 µM; with K-562 leukemia it was 0.74 µM. Further, the GI50 in the assay with A498 renal is 4.48 µM; in the assay on SF-268 CNS, 3.79 µM; in the assay on T-47D breast it was 1.82 µM; in the assay on NCI-H226 lung it was 3.72 µM. Moreover, the TGI with SK-MEL-28 melanoma was 3.46 µM; with HOP-62 NSCLC, 11.5 µM; in the assay with ACHN renal it was 11.9 µM; in the assay with MDA-MB-435, 3.66 µM; with NCI-H460 lung, 4.67 µM; in the assay on K-562 leukemia it was 4.08 µM. Further, the TGI in the assay with A498 renal worked out at 18.1 µM; with SF-268 CNS it was 16.9 µM; in the assay on T-47D breast it was 4.54 µM; in the assay on NCI-H226 lung, 21 µM.
`C/C(=N\N=C(N)N)C(CN(C)C)C(c1ccccc1)c1c(O)c2ccccc2oc1=O` (stereo unspecified): the TGI with SK-MEL-28 melanoma, with HOP-62 NSCLC, in the assay on ACHN renal, in the assay on MDA-MB-435, in the assay with NCI-H460 lung and with K-562 leukemia was > 100 µM in each case. Further, the TGI with A498 renal, in the assay on SF-268 CNS, with T-47D breast and with NCI-H226 lung was > 100 µM in each case.
For the compound `Cc1ccc(Sc2sc(-c3ccccc3)nc2[P+](c2ccccc2)(c2ccccc2)c2ccccc2)cc1`, the GI50 was 0.605 µM in the assay on SK-MEL-28 melanoma; 0.296 µM in the assay on HOP-62 NSCLC; 0.268 µM with ACHN renal; 0.291 µM with MDA-MB-435; 0.314 µM in the assay on NCI-H460 lung; 0.257 µM in the assay on K-562 leukemia. Further, the GI50 in the assay with A498 renal is 0.137 µM; in the assay on SF-268 CNS, 0.366 µM. The TGI in the assay on SK-MEL-28 melanoma came out at 1.88 µM; in the assay on HOP-62 NSCLC it was 1.18 µM; in the assay on ACHN renal, 0.933 µM; in the assay with MDA-MB-435 it was 0.882 µM; in the assay with NCI-H460 lung, 1.09 µM; in the assay on K-562 leukemia, 1.54 µM. In addition, the TGI with A498 renal was 0.568 µM; with SF-268 CNS it was 1.43 µM.
Take `C=C1C(=O)O[C@H]2[C@H]1CC/C(COC(=O)c1ccccc1)=C\CC[C@@]1(C)O[C@@H]21`: the GI50 with SK-MEL-28 melanoma was 1.74 µM; with HOP-62 NSCLC, 2.96 µM; with ACHN renal, 1.37 µM; with MDA-MB-435, 1.34 µM; in the assay with NCI-H460 lung, 2.22 µM; in the assay with K-562 leukemia, 0.451 µM. Further, the GI50 was 16.8 µM with A498 renal, 1.56 µM in the assay on SF-268 CNS and 1.62 µM with NCI-H226 lung. For the same compound, the TGI in the assay with SK-MEL-28 melanoma came out at 3.71 µM; in the assay on HOP-62 NSCLC, 14.1 µM; in the assay on ACHN renal, 2.86 µM; in the assay on MDA-MB-435, 3.24 µM; with NCI-H460 lung it was 6.16 µM; in the assay on K-562 leukemia, 13 µM. In addition, the TGI in the assay on A498 renal is 30.8 µM; with SF-268 CNS, 3.47 µM; in the assay with NCI-H226 lung, 3.74 µM.
`CCC(C)C1NC(=O)C(CC(C)C)NC(=O)C(C)NC(=O)C(C(C)C)NC(=O)C(CCCCN)NC(=O)C(CC(C)C)NC(=O)C(C(C)C)NC(=O)[C@H](C)NC(=O)C(C(C)CC)NC(=O)C(CCCN=C(N)N)NC(=O)C(CCCCN)NC(=O)C(CCCN=C(N)N)NC(=O)C(CCCCN)NC(=O)C([C@H](C)CC)NC(=O)C(CCCCN)NC1=O` (stereo partly specified) (cyclo(A[ξV][ξL][ξK][ξV][ξA][ξL][ξI][ξK][X21][ξK][ξR][ξK][ξR][ξI])): the GI50 in the assay with SK-MEL-28 melanoma is 1.82 µM; in the assay with HOP-62 NSCLC, 1.7 µM; in the assay with ACHN renal it was 1.79 µM; in the assay on MDA-MB-435, 1.51 µM; in the assay on NCI-H460 lung, 1.57 µM; with K-562 leukemia, 0.783 µM. In addition, the results for the GI50 with A498 renal, in the assay on SF-268 CNS and in the assay with T-47D breast were 1.15 µM, 1.76 µM and 0.756 µM, respectively. The TGI was 4.34 µM in the assay on SK-MEL-28 melanoma; 4.18 µM with HOP-62 NSCLC; 4.5 µM in the assay on ACHN renal; 3.33 µM in the assay on MDA-MB-435; 3.49 µM in the assay on NCI-H460 lung; 3.79 µM in the assay on K-562 leukemia. The results for the TGI with A498 renal, in the assay with SF-268 CNS and with T-47D breast were 2.82 µM, 5.12 µM and 4.28 µM, respectively.
Turning to `O=C1CS/C(=N\S(=O)(=O)c2ccc(N3N=C4c5ccccc5CC4C3c3ccc(Cl)cc3)cc2)N1c1ccccc1` (stereo unspecified), the GI50 with HOP-62 NSCLC was 56.8 µM; in the assay with ACHN renal, 27.7 µM; in the assay with MDA-MB-435, 30.6 µM; in the assay with NCI-H460 lung, 19.7 µM; with K-562 leukemia, 18.7 µM; with A498 renal, 25.6 µM. The GI50 was 22.7 µM with SF-268 CNS, 41.7 µM in the assay on T-47D breast and 45.1 µM in the assay with NCI-H226 lung. Besides, the TGI was > 100 µM in the assay with HOP-62 NSCLC; 66.5 µM with ACHN renal; 88.8 µM with MDA-MB-435; 48.9 µM in the assay with NCI-H460 lung; 40.3 µM in the assay on K-562 leukemia; 53 µM in the assay with A498 renal. The TGI was 84.8 µM in the assay with SF-268 CNS, > 100 µM in the assay on T-47D breast and > 100 µM in the assay on NCI-H226 lung.
For `O=C(COc1cccc(/C=C2\CSc3ccccc3C2=O)c1)c1ccc(Cl)cc1`, the GI50 with SK-MEL-28 melanoma is 1.78 µM; in the assay on HOP-62 NSCLC, 2.15 µM; in the assay on ACHN renal, 1.78 µM; in the assay with MDA-MB-435, 1.64 µM; in the assay with NCI-H460 lung, 2.88 µM; with A498 renal it was 3.95 µM. For the same compound, the results for the GI50 in the assay with SF-268 CNS, with T-47D breast and in the assay with NCI-H226 lung were 2.16 µM, 2.15 µM and 4.43 µM, respectively. In addition, the TGI with SK-MEL-28 melanoma worked out at 3.46 µM; in the assay on HOP-62 NSCLC, 6.12 µM; in the assay with ACHN renal it was 3.5 µM; with MDA-MB-435 it was 3.44 µM; with NCI-H460 lung, 8.38 µM; in the assay with A498 renal, 8.69 µM. Also, the values for the TGI in the assay with SF-268 CNS, with T-47D breast and with NCI-H226 lung were 5.2 µM, 5.43 µM and 16 µM, respectively.
Turning to `O=[N+]([O-])c1ccc(Cl)cc1N/N=C/c1cccc2cccnc12`, the TGI in the assay on SK-MEL-28 melanoma, with HOP-62 NSCLC, in the assay on ACHN renal, in the assay on MDA-MB-435, with NCI-H460 lung and with K-562 leukemia was > 100 µM each time. For the same compound, the TGI with SF-268 CNS and with T-47D breast was > 100 µM in each case.
